Where two headings read alike, the source gives them in different places.
Tests used:
[1] = tested on: arterial stiffness; settings: diabetes induced (Wolffenbutel 1998); cited from earlier work
[2] = tested on: old rats; settings: Li et al (1996); cited from earlier work
[3] = tested on: diabetic rats; settings: cited from earlier work
[4] = tested on: diabetic rats; settings: cited from earlier work; remark: listed apart in the source
[5] = tested on: rat model of diabetic retinopathy; settings: cited from earlier work
[6] = biological target: T1, AGE-BSA (Bos taurus, UniProt P02769); experiment: In-vitro AGE breaking activity by ELISA; format: biochemical, Bovine; settings: 37° C., 24 hours
T1 construct: Bovine serum albumin (fraction V) (BSA); from tissue; host or cells: bovine serum (fraction V); glycated in house with 1.6 M glucose at 37 °C for 16 weeks
Method in brief: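 BSA glycated with 1.6 M glucose in PBS at 37° C for 16 weeks, then dialyzed; 10 μg/ml AGE-BSA incubated with test compounds 24 h at 37° C. Remaining AGE-BSA coated at 5–20 ng/well and quantified by ELISA (anti-AGE-BSA primary, HRP anti-rabbit, OPD, OD 450–620 nm); % breaking calculated versus untreated 20 ng AGE-BSA.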

[7] = tested on: Rat-Tail Tendon collagen of diabetic male wister rats; settings: 8 weeks of treatment
Description: To evaluate AGE breaker efficacy of compounds of formula (I) the process of aging was mimicked by induction of diabetes in male wister rats. Diabetes was induced in male wister rats (by repeated STZ injections) to mimic the process of aging and formation of AGE. Diabetic male wister rats were treated with compounds of formula (I) for a period of 8 weeks after induction of diabetes and collagen solubility was measured in Rat-Tail Tendon. Rat Tail Tendon were selected because of their similarity with skin collagen (i.e. Type I collagen). After 8 weeks of treatment the “control” and “treated” groups of animals were sacrificed and tail tendons were homogenized, digested with hydrochloric acid and the supernatant of both the groups of animals was assayed for hydroxyprolin for acid soluble collagen contents as per method of Stegemann and Stalder (clinica Chimica Acta, 18 (1967) 267-273).
Diabetes and aging are degenerative process where normal proteins like collagen become cross-linked. The cross linking of skin collagen can lead to complications like Aging. To test the ability of compounds of invention to break pre-formed AGE, diabetic animals were treated for 8 weeks with the compounds. After the treatment the collagen solubility was estimated to determine their AGE breaking activity.

[8] = Free radical scavenging activity on ABTS radical cation; format: biochemical
Method in brief: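 ABTS radical cation generated with horseradish peroxidase and 1.08 mM H2O2 stock in PBS, preincubated 30 min at 30 °C. Serial dilutions were added, and absorbance at 730 nm was read immediately against PBS blank. % activity = (OD test/OD control ×100) − 100.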

T1 sequence (P02769 25-607): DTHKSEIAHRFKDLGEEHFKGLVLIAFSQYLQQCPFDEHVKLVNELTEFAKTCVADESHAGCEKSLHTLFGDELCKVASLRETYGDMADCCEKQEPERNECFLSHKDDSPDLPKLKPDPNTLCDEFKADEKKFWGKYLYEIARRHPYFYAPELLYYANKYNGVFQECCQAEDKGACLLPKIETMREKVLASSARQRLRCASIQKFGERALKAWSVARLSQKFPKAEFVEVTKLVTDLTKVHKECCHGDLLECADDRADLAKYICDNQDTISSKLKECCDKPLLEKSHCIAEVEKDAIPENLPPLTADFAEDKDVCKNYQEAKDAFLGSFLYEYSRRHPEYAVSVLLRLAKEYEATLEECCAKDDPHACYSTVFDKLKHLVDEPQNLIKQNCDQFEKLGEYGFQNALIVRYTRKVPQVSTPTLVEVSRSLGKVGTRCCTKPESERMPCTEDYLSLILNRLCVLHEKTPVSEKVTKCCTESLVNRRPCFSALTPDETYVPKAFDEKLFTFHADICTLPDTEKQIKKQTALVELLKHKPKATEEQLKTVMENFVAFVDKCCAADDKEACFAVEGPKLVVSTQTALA

Row | SMILES | % Breakage ([6]; 10 mM test compound) [%] | Relative Free Radical Scavenging Activity (%) on ABTS ([8]; 11.5 μM) [%] | Relative Free Radical Scavenging Activity (%) on ABTS ([8]; 23.0 μM) [%] | Relative Free Radical Scavenging Activity (%) on ABTS ([8]; 46.0 μM) [%] | Relative Free Radical Scavenging Activity (%) on ABTS ([8]; 92.5 μM) [%] | % Breakage ([6]; 5 mM test compound) [%] | other results
1 | Cc1sc[n+](CC(=O)c2ccccc2)c1C.[Cl-] [ALT-711] | – | – | – | – | – | – | arterial stiffness and arterial compliance [1]: reverse diabetes induced increase of arterial stiffness and improve arterial compliance
2 | N=C(N)NN [Aminoguanidine] | – | – | – | – | – | – | tissue damage in aging [2]: significantly prevent tissue damage; nerve conduction velocity [3]: improve nerve conduction velocity; development of diabetic nephropathy ([4]; Yamauchi (1997)): inhibits development of diabetic nephropathy; thickening of glomerular basement membrane ([4]; diabetic rats (Ellis 1991)): ameliorate thickening of glomerular basement membrane; rise in albuminuria ([4]; experimental diabetic rats (Soulis-Liparota, 1991)): attenuate the rise in albuminuria; progression of diabetic retinopathy [5]: retard progression of diabetic retinopathy
3 | CS(=O)(=O)NNC(=O)c1ccc[n+](CC(=O)c2cccs2)c1.[Br-] [Compound 5, 1-(2-thien-2′-yl-2-oxoethyl)-3-(methanesulfonylhydrazinocarbonyl)pyridinium bromide] | 16 | 47.2 | 65.6 | 83.7 | 100 | – | % Breakage ([6]; 50 mM test compound): 68%; % Improvement in collagen solubility with respect to untreated control subject. ([7]; 10.0 mg/kg): 88.80%
4 | O=C(NNC(=O)c1ccc[n+](CC(=O)c2cccs2)c1)c1ccc[n+](CC(=O)c2cccs2)c1.[Br-].[Br-] [Compound 6, N,N′-bis[3-carbonyl-1-(2-thien-2′-yl-2-oxoethyl)pyridinium]hydrazine dibromide] | – | – | – | – | – | 53 | % Improvement in collagen solubility with respect to untreated control subject. ([7]; 7.5 mg/kg): 56.70%
5 | O=C(NNC(=O)c1ccc[n+](CC(=O)c2cccs2)c1)c1ccc[n+](CC(=O)c2cccs2)c1.[Cl-].[Cl-] [Compound 33, N,N′-bis[3-carbonyl-1-(2-thien-2′-yl-2-oxoethyl)pyridinium]hydrazine dichloride] | – | 58.4 | 72.8 | 98.5 | 100 | 20 | % Improvement in collagen solubility with respect to untreated control subject. ([7]; 15.0 mg/kg): 80.45%
6 | O=C(C[n+]1cccc(C(=O)NNC(=O)c2ccc[n+](CC(=O)NC3CC3)c2)c1)NC1CC1.[Cl-].[Cl-] [Compound 39, N,N′-bis-[3-carbonyl-1-(2-cyclopropylamino-2-oxoethyl)pyridinium]hydrazine dichloride] | – | 43.0 | 62.8 | 95.6 | 98 | 22.8 | % Improvement in collagen solubility with respect to untreated control subject. ([7]; 6.0 mg/kg): 28.00%
7 | O=C(NCCO)c1ccc[n+](CC(=O)c2cccs2)c1.[Br-] [Compound 90, 1-(2-Thien-2′-yl-2-oxoethyl)-3-((2-hydroxyethyl)aminocarbonyl)pyridinium bromide] | 50 | 47.8 | 58.8 | 78.2 | 99.5 | – | Relative Free Radical Scavenging Activity (%) on ABTS ([8]; 925 μM): 100%
8 | CCCCOC(=O)c1ccc[n+](CC(=O)Nc2ccccc2)c1.[Cl-] [Compound 93, 1-(2-Phenylamino-2-oxoethyl)-3-(n-butyloxycarbonyl)pyridinium chloride] | 57 | 8.5 | 8.6 | 9.6 | 11.4 | – | Relative Free Radical Scavenging Activity (%) on ABTS ([8]; 925 μM): 25.0%
